In EP4786487A1, “PEPTIDE” (Peptidream Inc, priority 2023, dated 2025):
Like-named read-outs stand apart in the source and are kept apart here. Starred links: 1 amine or outer side, 2 acyl side, 3 side chain; linkers in the order of their positions; H or OH if unused. Positions of bridges follow the written chain, without caps; N, C: chain ends. Non-standard residues stand in square brackets, D forms with d. Residues, ends and D or L forms follow the SMILES beside them. *: point of attachment. X6 = CS(=O)(=O)c1ccc(-c2ccc(C[C@H](N[*:1])C(=O)[*:2])cc2)cc1; Phe(3-OCH2COOH) = N[C@@H](Cc1cccc(OCC(=O)O)c1)C(=O)O; Phe(4-COOH) = N[C@@H](Cc1ccc(C(=O)O)cc1)C(=O)O; Trp(7-aza) = N[C@@H](Cc1c[nH]c2ncccc12)C(=O)O; NMePhe(3-Me) = CN[C@@H](Cc1cccc(C)c1)C(=O)O; Piperidinyl(4-CH2COOH) = O=C(O)CC1CCN(*)CC1; Bip = N[C@@H](Cc1ccc(-c2ccccc2)cc1)C(=O)O; Phe(3-OMe) = COc1cccc(C[C@H](N)C(=O)O)c1; Gly(decyl) = CCCCCCCCCC[C@H](N)C(=O)O; Gly(N(CH2)3COOH) = O=C(O)CCCNCC(=O)O; X1 = CCCCCCC[C@H](N[*:1])C(=O)[*:2]; NMeF = CN[C@@H](Cc1ccccc1)C(=O)O; 4Pal = N[C@@H](Cc1ccncc1)C(=O)O; NMeE = CN[C@@H](CCC(=O)O)C(=O)O; dAad = N[C@H](CCCC(=O)O)C(=O)O; X12 = O=C(O)CCC1CCN(*)CC1; Carboxymethyl = O=C(O)C*; NMeA = CN[C@@H](C)C(=O)O; X9 = NC(=O)CC1CCN(*)CC1; Sar = CNCC(=O)O

Key:
Myostatin = target: T1, Myostatin (Homo sapiens, UniProt O14793); assay: HepG2 reporter gene assay, Evaluation Procedure (2): 2-concentrations assay, myostatin inhibition; type: cell-based
T1 construct: active myostatin (also called mature myostatin) is a homodimer consisting of two C-terminal growth factor domains; purchased R&D systems 788-G8/CF
T1 sequence (O14793 267-375): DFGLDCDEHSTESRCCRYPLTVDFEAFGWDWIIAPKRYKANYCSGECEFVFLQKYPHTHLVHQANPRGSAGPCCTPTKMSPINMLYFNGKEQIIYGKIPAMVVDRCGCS
Outline: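 Myostatin inhibition was measured in a luciferase reporter assay using HepG2 cells transfected with a pGL3 vector containing 12 CAGA repeats upstream of luciferase. After 20 to 24 hours with 10 ng/mL myostatin, cells received One-Glo:PBS (1:1) at 100 µL/well, were shaken for 5 min, and 20 µL/well was moved to 384-well plates and read on an Envision 2104.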

GDF-11 = target: T2, GDF-11 (Homo sapiens, UniProt O95390); assay: HepG2 reporter gene assay, Evaluation Procedure (2): 2-concentrations assay, GDF-11 inhibition; type: cell-based; settings: for inhibition at 0.03 µM: HepG2, peptide 30nM, read-out: GDF11 Inhibition 30nM; for inhibition at 0.03 µM / inhibition at 0.1 µM: GDF-11 10 ng/mL; for inhibition at 0.1 µM: HepG2, peptide 100nM, read-out: GDF11 Inhibition 100nM
T2 construct: purchased R&D systems 1958-GD-G8/CF
T2 sequence (O95390 299-407): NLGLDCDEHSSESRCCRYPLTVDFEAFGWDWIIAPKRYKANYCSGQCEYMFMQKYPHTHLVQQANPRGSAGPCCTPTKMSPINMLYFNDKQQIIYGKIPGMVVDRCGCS
Outline: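 HepG2 cells carrying the transfected pGL3(CAGA)12-luc reporter, a pGL3 vector with luciferase placed downstream of 12 CAGA repeats, were stimulated with GDF-11 at a final 10 ng/mL together with test peptide. Blank wells received no GDF-11 and no peptide. Plates were incubated 20 to 24 hours at 37°C with 5% CO2. Luminescence from One-Glo substrate was read to calculate percent inhibition.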

[1] = Table 7-3/7-4, myostatin 10 ng/mL, peptide at the higher of the 2 concentrations, HepG2, read-out: inhibition rate (myostatin inhibition assay)
[2] = Table 7-3/7-4, myostatin 10 ng/mL, peptide at the lower of the 2 concentrations, HepG2, read-out: inhibition rate (myostatin inhibition assay)
[3] = HepG2, first GDF-11 column of Table 7-3/7-4, GDF-11 10 ng/mL, peptide at the lower of the 2 concentrations, read-out: inhibition rate (GDF-11 inhibition assay)
[4] = HepG2, second GDF-11 column of Table 7-3/7-4, GDF-11 10 ng/mL, peptide at the higher of the 2 concentrations, read-out: inhibition rate (GDF-11 inhibition assay)
[5] = peptide 30nM, Myostatin 10 ng/mL, HepG2, read-out: Myostatin Inhibition 30nM
[6] = peptide 100nM, Myostatin 10 ng/mL, HepG2, read-out: Myostatin Inhibition 100nM
[7] = HepG2, read-out: inhibition rate (myostatin inhibition assay)

| SMILES | inhibition at 0.1 µM (Myostatin; [1]) | inhibition at 0.03 µM (Myostatin; [2]) | inhibition (GDF-11; [3]) | inhibition (GDF-11; [4]) | inhibition at 0.03 µM (Myostatin; [5]) | inhibition at 0.1 µM (Myostatin; [6]) | inhibition at 0.03 µM (GDF-11) | inhibition at 0.1 µM (GDF-11) | other results |
| --- | --- | --- | --- | --- | --- | --- | --- | --- | --- |
| CCCCCCC[C@@H]1NC(=O)[C@H](Cc2ccccc2)N(C)C(=O)[C@H](CCCNC(=N)N)NC(=O)[C@H](Cc2ccc(C(=O)O)cc2)NC(=O)[C@H](Cc2cccc(OCC(=O)O)c2)NC(=O)[C@H](C)N(C)C(=O)[C@H]([C@@H](C)CC)NC(=O)[C@H](Cc2ccccc2)N(C)C(=O)[C@H](Cc2ccc(O)cc2)NC(=O)[C@H](Cc2c[nH]c3ccccc23)NC(=O)[C@H](C)NC(=O)CN(CCCC(=O)O)C(=O)CCC[C@H](C(=O)O)NC(=O)[C@H](Cc2ccccc2)N(C)C(=O)[C@H](C)N(C)C1=O [Myostatin_99_v434] ([Gly(N(CH2)3COOH)]AWY[NMeF]I[NMeA][Phe(3-OCH2COOH)][Phe(4-COOH)]R[NMeF][X1][NMeA][NMeF][dAad]-OH; lactam N-15) | 100% | 98% | 0% | 0% | – | – | – | – | – |
| CC[C@H](C)[C@@H]1NC(=O)[C@H](Cc2ccccc2)N(C)C(=O)[C@H](Cc2ccc(O)cc2)NC(=O)[C@H](Cc2c[nH]c3ncccc23)NC(=O)[C@H](C)NC(=O)[C@H](C)NC(=O)CSC[C@H](C(=O)N[C@H](CO)C(=O)N[C@H](CO)C(=O)N[C@H](CO)C(=O)N[C@H](CCCCN)C(=O)O)NC(=O)[C@H](Cc2ccccc2)N(C)C(=O)[C@H](C)N(C)C(=O)[C@H](CC(C)C)NC(=O)[C@H](Cc2ccccc2)N(C)C(=O)[C@H](CCCNC(=N)N)NC(=O)[C@H](Cc2ccc(C(=O)O)cc2)NC(=O)[C@H](Cc2ccncc2)NC(=O)CN(C)C1=O [Myostatin_99_v36] ({CH2CO}-AA[Trp(7-aza)]Y[NMeF]I[Sar][4Pal][Phe(4-COOH)]R[NMeF]L[NMeA][NMeF][dC][dS][dS][dS][dK]-OH; thioether N-15) | – | – | – | – | 92% | 98% | 2% | 18% | – |
| CC[C@H](C)[C@@H]1NC(=O)[C@H](Cc2cccc(C)c2)N(C)C(=O)[C@H](Cc2ccc(O)cc2)NC(=O)[C@H](Cc2ccc(-c3ccccc3)cc2)NC(=O)[C@H](C)NC(=O)CN(CCCC(=O)O)C(=O)CSC[C@H](C(=O)O)NC(=O)[C@H](Cc2ccccc2)N(C)C(=O)[C@H](C)N(C)C(=O)[C@H](CC(C)C)NC(=O)[C@H](Cc2ccccc2)N(C)C(=O)[C@H](CCCNC(=N)N)NC(=O)[C@H](Cc2ccc(C(=O)O)cc2)NC(=O)[C@H](Cc2cccc(OCC(=O)O)c2)NC(=O)CN(C)C1=O [Myostatin_99_v119] ({CH2CO}-[Gly(N(CH2)3COOH)]A[Bip]Y[NMePhe(3-Me)]I[Sar][Phe(3-OCH2COOH)][Phe(4-COOH)]R[NMeF]L[NMeA][NMeF][dC]-OH; thioether N-15) | – | – | – | – | 46% | 70% | 0% | 0% | – |
| CC[C@H](C)[C@@H]1NC(=O)[C@H](Cc2ccccc2)N(C)C(=O)[C@H](Cc2ccc(O)cc2)NC(=O)[C@H](Cc2c[nH]c3ccccc23)NC(=O)[C@H](C)NC(=O)CN(CCCC(=O)O)C(=O)CSC[C@H](C(=O)O)NC(=O)[C@H](Cc2ccccc2)N(C)C(=O)[C@H](C)N(C)C(=O)[C@H](CC(C)C)NC(=O)[C@H](Cc2ccccc2)N(C)C(=O)[C@H](CCCNC(=N)N)NC(=O)[C@H](Cc2ccc(OCC(=O)O)cc2)NC(=O)[C@H](Cc2cccc(OC)c2)NC(=O)[C@H](C)N(C)C1=O [Myostatin_99_v126] ({CH2CO}-[Gly(N(CH2)3COOH)]AWY[NMeF]I[NMeA][Phe(3-OMe)]Y(Carboxymethyl)R[NMeF]L[NMeA][NMeF][dC]-OH; thioether N-15) | – | – | – | – | 28% | 68% | 0% | 0% | – |
| CCCCCCCCCC[C@@H]1NC(=O)[C@H](Cc2ccccc2)N(C)C(=O)[C@H](CCCNC(=N)N)NC(=O)[C@H](Cc2ccc(C(=O)O)cc2)NC(=O)[C@H](Cc2cccc(OCC(=O)O)c2)NC(=O)[C@H]2CCCN2C(=O)[C@H]([C@@H](C)CC)NC(=O)[C@H](Cc2ccccc2)N(C)C(=O)[C@H](Cc2ccc(O)cc2)NC(=O)[C@H](Cc2ccc(-c3ccc(S(C)(=O)=O)cc3)cc2)NC(=O)[C@H](C)NC(=O)[C@H](C)NC(=O)CSC[C@H](C(=O)N2CCC(CC(=O)O)CC2)NC(=O)[C@H](Cc2ccccc2)N(C)C(=O)[C@H](CCC(=O)O)N(C)C1=O [Myostatin_99_v342] ({CH2CO}-AA[X6]Y[NMeF]I[dP][Phe(3-OCH2COOH)][Phe(4-COOH)]R[NMeF][Gly(decyl)][NMeE][NMeF][dC]-{Piperidinyl(4-CH2COOH)}; thioether N-15) | – | – | – | – | – | – | – | – | inhibition at 0.03 µM (Myostatin; [7]): 100%; inhibition at 0.1 µM (Myostatin; [7]): 100%; inhibition (GDF-11; HepG2, read-out: inhibition rate (GDF-11 inhibition assay), Table 7-3/7-4, GDF-11 10 ng/mL, peptide at the higher of the 2 concentrations): 47%; inhibition (GDF-11; HepG2, read-out: inhibition rate (GDF-11 inhibition assay), Table 7-3/7-4, GDF-11 10 ng/mL, peptide at the lower of the 2 concentrations): 0% |
| CC[C@H](C)[C@@H]1NC(=O)[C@H](Cc2ccccc2)N(C)C(=O)[C@H](Cc2ccc(O)cc2)NC(=O)[C@H](Cc2c[nH]c3ncccc23)NC(=O)[C@H](CCC(=O)O)NC(=O)[C@H](C)NC(=O)CSC[C@H](C(=O)N[C@H](CO)C(=O)N[C@H](CO)C(=O)N[C@H](CO)C(=O)N[C@H](CCCCN)C(=O)O)NC(=O)[C@H](Cc2ccccc2)N(C)C(=O)[C@H](C)N(C)C(=O)[C@H](CC(C)C)NC(=O)[C@H](Cc2ccccc2)N(C)C(=O)[C@H](CCCNC(=N)N)NC(=O)[C@H](Cc2ccc(C(=O)O)cc2)NC(=O)[C@H](Cc2ccncc2)NC(=O)CN(C)C1=O [Myostatin_99_v40] ({CH2CO}-AE[Trp(7-aza)]Y[NMeF]I[Sar][4Pal][Phe(4-COOH)]R[NMeF]L[NMeA][NMeF][dC][dS][dS][dS][dK]-OH; thioether N-15) | – | – | – | – | 39% | 67% | 0% | 0% | – |
| CCCCCCC[C@@H]1NC(=O)[C@H](Cc2ccccc2)N(C)C(=O)[C@H](CCCNC(=N)N)NC(=O)[C@H](Cc2ccc(C(=O)O)cc2)NC(=O)[C@H](Cc2cccc(OCC(=O)O)c2)NC(=O)[C@H](C)N(C)C(=O)[C@H]([C@@H](C)CC)NC(=O)[C@H](Cc2ccccc2)N(C)C(=O)[C@H](Cc2ccc(O)cc2)NC(=O)[C@H](Cc2c[nH]c3ccccc23)NC(=O)[C@H](C)NC(=O)CN(CCCC(=O)O)C(=O)CSC[C@H](C(=O)N2CCC(CC(N)=O)CC2)NC(=O)[C@H](Cc2ccccc2)N(C)C(=O)[C@H](C)N(C)C1=O [Myostatin_99_v432] ({CH2CO}-[Gly(N(CH2)3COOH)]AWY[NMeF]I[NMeA][Phe(3-OCH2COOH)][Phe(4-COOH)]R[NMeF][X1][NMeA][NMeF][dC]-X9; thioether N-15) | 100% | 100% | 0% | 0% | – | – | – | – | – |
| CCCCCCC[C@@H]1NC(=O)[C@H](Cc2ccccc2)N(C)C(=O)[C@H](CCCNC(=N)N)NC(=O)[C@H](Cc2ccc(C(=O)O)cc2)NC(=O)[C@H](Cc2cccc(OCC(=O)O)c2)NC(=O)CN(C)C(=O)[C@H]([C@@H](C)CC)NC(=O)[C@H](Cc2ccccc2)N(C)C(=O)[C@H](Cc2ccc(O)cc2)NC(=O)[C@H](Cc2c[nH]c3ccccc23)NC(=O)[C@H](C)NC(=O)[C@H](C)NC(=O)CSC[C@H](C(=O)N2CCC(CCC(=O)O)CC2)NC(=O)[C@H](Cc2ccccc2)N(C)C(=O)[C@H](C)N(C)C1=O [Myostatin_99_v314] ({CH2CO}-AAWY[NMeF]I[Sar][Phe(3-OCH2COOH)][Phe(4-COOH)]R[NMeF][X1][NMeA][NMeF][dC]-X12; thioether N-15) | 100% | 100% | 2% | 51% | – | – | – | – | – |
